Source: patent publication US9278940B2, “Cyclic amines as bromodomain inhibitors” (Zenith Epigenetics Corp., priority 2012, dated 2016)

What was measured:
Brd4 bromodomain 1 = target: T1, Brd4 bromodomain 1 (Homo sapiens, UniProt O60885); test: Inhibition of tetra-acetylated histone H4 binding to BET bromodomain (TR-FRET); design: key: Active: Compounds with an IC50 value less than 30 μM were deemed to be active.; Not Active: Compounds with an IC50 value less than 30 μM were deemed to be active; details: Brd4 bromodomain 1, tetra-acetylated histone H4 peptide
T1 construct: made in house; host or cells: E. coli BL21(DE3)
Protocol: Proteins were cloned and overexpressed with a N-terminal 6×His tag, then purified by nickel affinity followed by size exclusion chromatography. Briefly, E. coli BL21(DE3) cells were transformed with a recombinant expression vector encoding N-terminally Nickel affinity tagged bromodomains from Brd2, Brd3, Brd4. Cell cultures were incubated at 37° C. with shaking to the appropriate density and induced overnight with IPTG. The supernatant of lysed cells was loaded onto Ni-IDA column for purification. Eluted protein is pooled, concentrated and further purified by size exclusion chromatography. Fractions representing monomeric protein were pooled, concentrated, aliquoted, and frozen at −80° C. for use in subsequent experiments.
Binding of tetra-acetylated histone H4 and BET bromodomains was confirmed by a Time Resolved Fluorescence Resonance Energy Transfer (TR-FRET) method. N-terminally His-tagged bromodomains (200 nM) and biotinylated tetra-acetylated histone H4 peptide (25-50 nM, Millipore) were incubated in the presence of Europium Cryptate-labeled streptavidin (Cisbio Cat. #610SAKLB) and XL665-labeled monoclonal anti-His antibody (Cisbio Cat. #61HISXLB) in a white 96 well microtiter plate (Greiner). For inhibition assays, serially diluted test compound was added to these reactions in a 0.2% final concentration of DMSO. Final buffer concentrations were 30 mM HEPES pH 7.4, 30 mM NaCl, 0.3 mM CHAPS, 20 mM phosphate pH 7.0, 320 mM KF, 0.08% BSA). After 2 hours incubation at room temperature, the fluorescence by FRET was measured at 665 and 620 nm by a SynergyH4 plate reader (Biotek). The binding inhibitory activity was shown by a decrease in 665 nm fluorescence relative to 620 nm. IC50 values were determined from a dose response curve.

c-myc = test: Inhibition of c-myc expression (mRNA, real-time PCR) in MV4-11 cells; type: cell-based; design: key: Active: Compounds with an IC50 value less than 30 μM were deemed to be active.; Not Active: Compounds with an IC50 value less than 30 μM were deemed to be active; details: Human AML MV4-11 cells, 3 hours
Protocol: MV4-11 cells (2.5×10^4 cells) were plated in 96 well U-bottom plates with test compound or DMSO (0.1%), and incubated for 3 hours at 37° C. Cells were then harvested by centrifugation, lysed, and mRNA was isolated using the mRNA catcher plus kit (Invitrogen). Reverse transcription of the mRNA and duplex amplification of the c-myc and cyclophilin cDNAs was performed using the RNA Ultrasense kit (Invitrogen) and a ViiA7 real-time PCR machine (Applied Biosystems). IC50 values were determined from a dose response curve.

Human AML MV-4-11 cells = test: Inhibition of cell proliferation in MV4-11 cells; type: cell-based; design: key: Active: Compounds with an IC50 value less than 30 μM are deemed to be active.; Not Active: Compounds with an IC50 value less than 30 μM are deemed to be active; details: 72 hours
Protocol: MV4-11 cells: 96-well plates were seeded with 5×10^4 cells per well of exponentially growing human AML MV-4-11 (CRL-9591) cells and immediately treated with two-fold dilutions of test compounds, ranging from 30 μM to 0.2 μM. Triplicate wells were used for each concentration, as well as a media only and three DMSO control wells. The cells and compounds were incubated at 37° C., 5% CO2 for 72 hours before adding 20 μL of the CellTiter Aqueous One Solution (Promega) to each well and incubating at 37° C., 5% CO2 for an additional 3-4 hours. The absorbance was taken at 490 nm in a spectrophotometer and the percentage of proliferation relative to DMSO-treated cells was calculated after correction from the blank well. IC50 were calculated using the GraphPad Prism software.

hIL-6 mRNA = test: Inhibition of hIL-6 mRNA transcription in LPS-stimulated U937 macrophages; type: cell-based, human; design: key: Active: Compounds with an IC50 value less than 30 μM are deemed to be active.; Not Active: Compounds with an IC50 value less than 30 μM are deemed to be active; details: U937 cells differentiated with PMA, 1 h pretreatment, LPS 3 h
Protocol: In this example, hIL-6 mRNA in tissue culture cells was quantitated to measure the transcriptional inhibition of hIL-6 when treated with a compound of the present disclosure.
A human leukemic monocyte lymphoma cell line (U937) was plated (3.2×10^4 cells per well) in a 96-well plate in […] RPMI-1640 containing 10% FBS and penicillin/streptomycin, and differentiated into macrophages for 3 days in 60 ng/mL PMA ([…]) at 37° C. in 5% CO2 prior to the addition of the compound of interest. The cells were pretreated for 1 h with the test compound prior to stimulation with 1 ug/mL lipopolysaccharide from Escherichia coli. The cells were incubated at 37-C for 3 h before the cells were harvested. At time of harvest, the spent media was removed from the cells and the cells were rinsed in 200 μL PBS. Cell lysis solution (70 μL) was added the cells in each well and incubated for 5-10 min at room temperature, to allow for complete cell lysis and detachment. mRNA was then prepared using the “mRNA Catcher PLUS plate” (Invitrogen), according to the protocol supplied. After the last wash, as much wash buffer as possible was aspirated without allowing the wells to dry. Elution buffer (E3, 70 μL) was then added to each well. mRNA was then eluted by incubating the mRNA Catcher PLUS plate with Elution Buffer for 5 min at 68° C. and then immediately placing the plate on ice.
The eluted mRNA isolated was then used in a one-step quantitative real-time PCR reaction, using components of the Ultra Sense Kit together with Applied Biosystems primer-probe mixes. Real-time PCR data was analyzed, normalizing the Ct values for hIL-6 to an internal control, prior to determining the fold induction of each unknown sample, relative to the control.

hApoA-1 mRNA = test: Up-regulation of hApoA-1 mRNA transcription in Huh7 cells; type: cell-based, human; design: key: Active: Compounds with an EC170 value less than 30 μM are deemed to be active.; Not Active: Compounds with an EC170 value less than 30 μM are deemed to be active; details: 48 hrs treatment, ApoA-I mRNA
Protocol: In this example, ApoA-I mRNA in tissue culture cells was quantitated to measure the transcriptional up-regulation of ApoA-I when treated with a compound of the present disclosure.
Huh7 cells ([…] per well) were plated in a 96-well plate using 100 μL DMEM per well, (Gibco DMEM supplemented with penicillin/streptomycin and 10% FBS), 24 h before the addition of the compound of interest. After 48 hrs treatment, the spent media was removed from the Huh-7 cells and placed on ice (for immediate use) or at −80° C. (for future use) with the “LDH cytotoxicity assay Kit II” from Abcam. The cells remaining in the plate were rinsed with 100 μL PBS.
Then 85 μL of cell lysis solution was added to each well and incubated for 5-10 minutes at room temperature, to allow for complete cell lysis and detachment. mRNA was then prepared using the “mRNA Catcher PLUS plate” from Life Technologies, according to the protocol supplied. After the last wash, as much wash buffer as possible was aspirated without allowing the wells to dry. Elution Buffer (E3, 80 μL) was then added to each well. mRNA was then eluted by incubating the mRNA Catcher PLUS plate with Elution Buffer for 5 minutes at 68° C., and then 1 minute at 4° C. Catcher plates with mRNA eluted were kept on ice for use or stored at −80° C.
The eluted mRNA isolated was then used in a one-step real-time PCR reaction, using components of the Ultra Sense Kit together with Life Technologies primer-probe mixes. Real-time PCR data was analyzed, using the Ct values, to determine the fold induction of each unknown sample, relative to the control (that is, relative to the control for each independent DMSO concentration).
Compounds with an EC170 value less than 30 μM are deemed to be active.

Row | SMILES | FRET activity (IC50 < 30 μM) (Brd4 bromodomain 1) | c-myc activity (IC50 < 30 μM) (c-myc) | cell proliferation activity (IC50 < 30 μM) (Human AML MV-4-11 cells) | IL-6 activity (IC50 < 30 μM) (hIL-6 mRNA) | ApoA-1 activity (EC170 < 30 μM) (hApoA-1 mRNA) | melting point
1 | COc1cc(OC)c2c(=O)[nH]c(-c3cccc(N4CCN(C(C)C)CC4)c3)nc2c1 [Example 1, 2-(3-(4-Isopropylpiperazin-1-yl)phenyl)-5,7-dimethoxyquinazolin-4(3H)-one] | Active | Active | Not Active | Active | Active | 251 to 253 °C
2 | COc1cc(-c2nc3cc(OC)cc(OC)c3c(=O)[nH]2)cc(N2CCN(C(C)C)CC2)c1 [Example 2, 2-(3-(4-Isopropylpiperazin-1-yl)-5-methoxyphenyl)-5,7-dimethoxyquinazolin-4(3H)-one] | Active | Active | Active | Active | Active | 212 to 213 °C
3 | COCCN1CCN(c2cccc(-c3nc4cc(OC)cc(OC)c4c(=O)[nH]3)n2)CC1 [Example 3, 5,7-Dimethoxy-2-(6-(4-(2-methoxyethyl)piperazin-1yl)pyridin-2-yl)quinazolin-4(3H)-one] | Active | Active | Active | Active | Active | 99 to 101 °C
4 | COc1cc(OC)c2c(=O)[nH]c(-c3cccc(N4CCN(CCO)CC4)n3)nc2c1 [Example 4, 2-(6-(4-(2-Hydroxyethyl)piperazin-1-yl)pyridin-2-yl)-5,7-dimethoxyquinazolin-4(3H)-one] | Active | Active | Active | Active | Active | 175 to 177 °C
5 | COc1cc(OC)c2c(=O)[nH]c(-c3cccc(N4CCN(CC(C)C)CC4)n3)nc2c1 [Example 5, 2-(6-(4-Isobutylpiperazin-1-yl)pyridin-2-yl)-5,7-dimethoxyquinazolin-4(3H)-one] | Active | Active | Active | Active | Active | 188 to 189 °C
6 | COc1cc(OC)c2c(=O)[nH]c(-c3cccc(N4CCN(C(C)CO)CC4)n3)nc2c1 (stereo not shown) [Example 8, 2-(6-(4-(1-Hydroxypropan-2-yl)piperazin-1-yl)pyridin-2-yl)-5,7-dimethoxyquinazolin-4(3H)-one] | Active | Active | Active | Active | Active | 202 to 204 °C
7 | COc1cc(OC)c2c(=O)[nH]c(-c3cccc(N4CCN(C(C)C(N)=O)CC4)n3)nc2c1 (stereo not shown) [Example 9, 2-(4-(6-(5,7-Dimethoxy-4-oxo-3,4-dihydroquinazolin-2-yl)pyridin-2-yl)piperazin-1-yl)propanamide] | Active | Not Active | Active | Not Active | Active | 149 to 150 °C
8 | COc1cc(OC)c2c(=O)[nH]c(-c3cccc(N4CCN(CCC(=O)O)CC4)n3)nc2c1 [Example 11, 3-(4-(6-(5,7-Dimethoxy-4-oxo-3,4-dihydroquinazolin-2-yl)pyridin-2-yl)piperazin-1-yl)propanoic acid] | Active |  |  | Not Active | Not Active | 241 °C (dec.)
9 | COc1cc(OC)c2c(=O)[nH]c(-c3ccc(OC)c(N4CCN(C(C)C)CC4)n3)nc2c1 [Example 14, 2-(6-(4-Isopropylpiperazin-1-yl)-5-methoxypyridin-2-yl)-5,7-dimethoxyquinazolin-4(3H)-one] | Active | Active | Active | Not Active | Active | 208 to 210 °C
